In US20260193311A1, “METHODS AND COMPOSITIONS FOR STIMULATION OF CHIMERIC ANTIGEN RECEPTOR T CELLS WITH HAPTEN LABELLED CELLS” (Seattle Children's Hospital (dba Seattle Children's …, priority 2018, published 2026):

Legend:
[1] = test system: CD19+K562 cells (hapten-labeled); assay: cytokine release assay of antiFL CAR T cells against hapten-labelled cells; format: cell-based; details: target cells prepared with 5 μM FL-DHPE
Method: Hapten-labeled cells were prepared. CD19^+K562 cells were incubated either overnight with 5 μM FL-DHPE or for 20 min with an CD19 antibody labeled with FITC. The hapten-labeled cells were incubated with either one of two antiFL CAR T cells (FITC-E2 scFv, or 4M5.3 scFv). […] Hudecek M, et al., (2013) Clin Cancer Res. 19:3153-64, which is incorporated by reference in its entirety.
The levels of cytokines released by the antiFL CAR T cells were determined. […] The levels of released IFN-7, and TNF-α were lower for hapten-labeled cells contacted with the antiFL(4M5.3) CART cell. Also, there was a trend for hapten-labeled cells prepared with FL-DHPE inducing higher levels of cytokine release compared to hapten-labeled cells prepared with an CD19 antibody labeled with FITC.

CD19+ Raji cells = assay: flow cytometry for presence of FL on hapten-labeled cells; format: cell-based
Method: Hapten-labeled cells were prepared by either attaching the hapten, fluorescein (FL), to the cells via an integrated phospholipid or via an antibody. CD19+ Raji cells (lymphoma cell line) were incubated either overnight with 5 μM FL-DHPE (FIG. 3B), or for 20 min with an antiCD19 antibody labeled with fluorescein isothiocyanate (FITC). The cells were washed, stained, and analyzed by flow cytometry for the presence of FL. […] The levels of FL were higher for cells treated with FL-DHPE compared to cells treated with the antiCD19 antibody (FIG. 4A). This was consistent with different tethering techniques providing different levels of hapten on the surface of a cell.

Structure (SMILES): CCCCCCCCCCCCCCCC(=O)OCC(COP(=O)(O)OCCNC(=S)Nc1ccc2c(c1)C(=O)OC21c2ccc(O)cc2Oc2cc(O)ccc21)OC(=O)CCCCCCCCCCCCCCC (stereo not drawn) [FL-DHPE, N-(Fluorescein-5-Thiocarbamoyl)-1,2-Dihexadecanoyl-sn-Glycero-3-Phosphoethanolamine]
- cytokine release compared to hapten-labeled cells prepared with CD19 antibody labeled with FITC (trend) [1]: higher levels
- presence of FL, shift compared to untreated control cells (CD19+ Raji cells; 5 μM FL-DHPE overnight): positive shift
- levels of FL compared to cells treated with the antiCD19 antibody (CD19+ Raji cells; 5 μM FL-DHPE overnight vs antibody 20 min): higher
